In the assay the target is T1, human OX2R (Homo sapiens, UniProt O43614).
T1 construct: expressed in transfected cells; host or cells: CHO (Chinese hamster ovary) cells grown under G418 selection
T1 sequence (O43614 1-444): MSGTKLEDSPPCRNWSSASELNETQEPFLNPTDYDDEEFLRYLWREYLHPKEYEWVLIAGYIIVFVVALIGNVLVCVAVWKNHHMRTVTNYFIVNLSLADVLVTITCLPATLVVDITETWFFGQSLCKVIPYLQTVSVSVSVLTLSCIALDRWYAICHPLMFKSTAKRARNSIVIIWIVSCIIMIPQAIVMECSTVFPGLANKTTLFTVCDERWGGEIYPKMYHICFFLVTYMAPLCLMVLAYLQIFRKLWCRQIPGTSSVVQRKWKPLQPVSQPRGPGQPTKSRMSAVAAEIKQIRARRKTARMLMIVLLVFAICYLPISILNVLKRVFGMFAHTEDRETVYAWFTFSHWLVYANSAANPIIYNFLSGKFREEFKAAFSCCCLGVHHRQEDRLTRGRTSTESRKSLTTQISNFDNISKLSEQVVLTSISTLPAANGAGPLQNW
Description: IPOne (IP-1 accumulation) assay in CHO cells expressing human OX2R. It is filed as cell-based. To be noted: for EC50: CHO cells expressing human OX2R, IP-One assay, 2 h incubation, four parameter logistic fit, read-out: OX2R Potency, EC50; for % of maximum agonist effect (relative to Orexin A): percent effect vs mean max effect of a reference compound at 1 uM (100% activity vs Orexin A), human OX2R. The source says: The utility of the compounds in accordance with the present invention as orexin receptor OX1R and/or OX2R agonists may be readily determined without undue experimentation by methodology well known in the art. Both the OX1R and/or OX2R G-coupled protein receptors (GPCRs) couple through the Gαq signaling pathway, which ultimately promotes calcium mobilization via inositol triphosphate (IP3) production. […] The utility of the compounds in accordance with the present invention as orexin receptor OX1R and/or OX2R agonists may be determined utilizing this assay.
In a typical experiment, the OX1 and OX2 receptor agonist activity is determined in accordance with the following general experimental method. Chinese hamster ovary (CHO) cells expressing human OX1R and/or the human OX2R were grown in Iscove's modified DMEM containing glutaMAX™, 1% G418, 100 U/mL penicillin, 100 μg/mL streptomycin and 10% heat-inactivated qualified fetal bovine serum (FBS). […] During this incubation, IP-one detection reagents were prepared (38:1:1 lysis buffer:D2:AB-cryptate reagents).
For each compound, data were fit to a four parameter logistic fit (ActivityBase software) and the EC50 was reported as the inflection point of the resulting curve. […] The intrinsic orexin receptor agonist activity of a compound which may be used in the present invention may be determined by these assays.

This is an account of results in patent US12692262B2, “Substituted ureas as orexin receptor agonists” (Merck Sharp & Dohme LLC, priority 2020, dated 2026).

With `COc1cnc([C@H](N(C(=O)N[C@@H](CCC(F)(F)F)C(F)(F)F)C2CC2)C(F)(F)F)cc1-c1cn2cc(C)nc2c(OC)n1` [Example 2-19, 1-cyclopropyl-3-((S)-1,1,1,5,5,5-hexafluoropentan-2-yl)-1-(2,2,2-trifluoro-1-(5-methoxy-4-(8-methoxy-2-methylimidazo[1,2-a]pyrazin-6-yl)pyridin-2-yl)ethyl)urea], the EC50 stood at 5.7 nM and the “% of maximum agonist effect (relative to Orexin A)” value worked out at 102.0%.
`CC[C@H](CCC(F)(F)F)NC(=O)N(CC(F)F)C(c1cc(-c2cn3ncnc3c(OC)n2)c(OC)cn1)C(F)(F)F` (stereo partly drawn) [Example 2-20, 1-(2,2-difluoroethyl)-1-(2,2,2-trifluoro-1-(5-methoxy-4-(8-methoxy-[1,2,4]triazolo[1,5-a]pyrazin-6-yl)pyridin-2-yl)ethyl)-3-((R)-6,6,6-trifluorohexan-3-yl)urea]: the EC50 amounted to 341 nM and the “% of maximum agonist effect (relative to Orexin A)” value amounted to 99.7%.
For `CC[C@H](CCC(F)(F)F)NC(=O)N(CC)[C@@H](c1cc(-c2cn3ccnc3c(OC)n2)c(OC)cn1)C(F)(F)F` [Example 2-21, 1-ethyl-1-((S)-2,2,2-trifluoro-1-(5-methoxy-4-(8-methoxyimidazo[1,2-a]pyrazin-6-yl)pyridin-2-yl)ethyl)-3-((R)-6,6,6-trifluorohexan-3-yl)urea], the EC50 turned out to be 0.8 nM and the “% of maximum agonist effect (relative to Orexin A)” value is reported as 99.6%.
Take `CCN(C(=O)N[C@@H](CCC(F)(F)F)C(F)(F)F)[C@@H](c1cccc(-c2cn3ccnc3c(OC)n2)c1)C(F)(F)F` [Example 2-22, N-ethyl-N′-[(2S)-1,1,1,5,5,5-hexafluoropentan-2-yl]-N-{2,2,2-trifluoro-1-[3-(8-methoxyimidazo[1,2-a]pyrazin-6-yl)phenyl]ethyl}urea]: the EC50 worked out at 2.8 nM and the “% of maximum agonist effect (relative to Orexin A)” value was found to be 101.5%.
For `CCN(C(=O)N[C@@H](CCC(F)(F)F)C(F)(F)F)[C@@H](c1ccc(OC)c(-c2ccc3nccn3c2)c1)C(F)(F)F` [Example 2-23, 1-ethyl-3-((S)-1,1,1,5,5,5-hexafluoropentan-2-yl)-1-((S)-2,2,2-trifluoro-1-(3-(imidazo[1,2-a]pyridin-6-yl)-4-methoxyphenyl)ethyl)urea] the same measures were 2.7 nM and 100.8%.
The matching figures for `CCN(C(=O)NC(C)(C)C#N)[C@H](C)c1cccc(-c2cn3ccnc3c(OC)n2)c1` [Example 2-25, (R)-3-(2-cyanopropan-2-yl)-1-ethyl-1-(1-(3-(8-methoxyimidazo[1,2-a]pyrazin-6-yl)phenyl)ethyl)urea]: 360 nM and 98.0%.
As to `CCN(C(=O)NC(C)c1nc(C)no1)[C@@H](c1cc(-c2cn3ccnc3c(OC)n2)c(OC)cn1)C(F)(F)F` (stereo partly drawn) [Example 2-26, 1-ethyl-3-(1-(3-methyl-1,2,4-oxadiazol-5-yl)ethyl)-1-((S)-2,2,2-trifluoro-1-(5-methoxy-4-(8-methoxyimidazo[1,2-a]pyrazin-6-yl)pyridin-2-yl)ethyl)urea], the EC50 was determined as 8.6 nM and the “% of maximum agonist effect (relative to Orexin A)” value is on record as 100.5%.
With `CCN(C(=O)N[C@@H]1C[C@@]1(C)C(F)(F)F)[C@@H](c1cc(-c2cn3ccnc3c(OC)n2)c(OC)cn1)C(F)(F)F` [Example 2-27, 1-ethyl-3-((1R,2R)-2-methyl-2-(trifluoromethyl)-cyclopropyl)-1-((S)-2,2,2-trifluoro-1-(5-methoxy-4-(8-methoxyimidazo[1,2-a]pyrazin-6-yl)pyridin-2-yl)ethyl)urea], the EC50 turned out to be 9.4 nM and the “% of maximum agonist effect (relative to Orexin A)” value was found to be 101.1%.
For the compound `CCN(C(=O)N[C@@H](C(C)(C)C)C(F)(F)F)[C@@H](c1cc(-c2cn3ccnc3c(OC)n2)c(OC)cn1)C(F)(F)F` [Example 2-28, 1-ethyl-1-((S)-2,2,2-trifluoro-1-(5-methoxy-4-(8-methoxyimidazo[1,2-a]pyrazin-6-yl)pyridin-2-yl)ethyl)-3-((S)-1,1,1-trifluoro-3,3-dimethylbutan-2-yl)urea], the concentration for a half-maximal effect (EC50) is 16.1 nM and the “% of maximum agonist effect (relative to Orexin A)” value is recorded as 99.1%.
The matching figures for `CCN(C(=O)NC(C)C)[C@@H](c1cc(-c2cn3ccnc3c(OC)n2)c(OC)cn1)C(F)(F)F` [Example 2-29, (S)-1-ethyl-3-isopropyl-1-(2,2,2-trifluoro-1-(5-methoxy-4-(8-methoxyimidazo[1,2-a]pyrazin-6-yl)pyridin-2-yl)ethyl)urea]: 23.8 nM and 96.0%.
The matching figures for `CCN(C(=O)NC1CC(CC(F)(F)F)C1)[C@@H](c1cc(-c2cn3ccnc3c(OC)n2)c(OC)cn1)C(F)(F)F` (stereo partly drawn) [Example 2-30, (S)-1-ethyl-1-(2,2,2-trifluoro-1-(5-methoxy-4-(8-methoxyimidazo[1,2-a]pyrazin-6-yl)pyridin-2-yl)ethyl)-3-(3-(2,2,2-trifluoroethyl)cyclobutyl)urea]: 34.6 nM and 99.0%.
For the compound `CCN(C(=O)N[C@]1(C)C[C@H]1C(F)(F)F)[C@@H](c1cc(-c2cn3ccnc3c(OC)n2)c(OC)cn1)C(F)(F)F` [Example 2-31, 1-ethyl-3-((1R,2R)-1-methyl-2-(trifluoromethyl)cyclopropyl)-1-((S)-2,2,2-trifluoro-1-(5-methoxy-4-(8-methoxyimidazo[1,2-a]pyrazin-6-yl)pyridin-2-yl)ethyl)urea], the EC50 stood at 35.1 nM and the “% of maximum agonist effect (relative to Orexin A)” value is reported as 99.0%.
In the case of `CCN(C(=O)NC1CC1)[C@@H](c1cc(-c2cn3ccnc3c(OC)n2)c(OC)cn1)C(F)(F)F` [Example 2-32, (S)-3-cyclopropyl-1-ethyl-1-(2,2,2-trifluoro-1-(5-methoxy-4-(8-methoxyimidazo[1,2-a]pyrazin-6-yl)pyridin-2-yl)ethyl)urea], the EC50 is 40.8 nM and the “% of maximum agonist effect (relative to Orexin A)” value is 101.0%.
The matching figures for `CCN(C(=O)NC(C1CC(F)(F)CCO1)C(F)(F)F)[C@H](C)c1cccc(-c2cn3ccnc3c(OC)n2)c1` (stereo partly drawn) [Example 2-33, 3-(1-(4,4-difluorotetrahydro-2H-pyran-2-yl)-2,2,2-trifluoroethyl)-1-ethyl-1-((R)-1-(3-(8-methoxyimidazo[1,2-a]pyrazin-6-yl)phenyl)ethyl)urea]: 0.8 nM and 101.6%.
The matching figures for `CCN(C(=O)NC(CC(C)=O)C(F)(F)F)[C@@H](c1cc(-c2cn3ccnc3c(OC)n2)c(OC)cn1)C(F)(F)F` (stereo partly drawn) [Example 2-34, 1-ethyl-1-((S)-2,2,2-trifluoro-1-(5-methoxy-4-(8-methoxyimidazo[1,2-a]pyrazin-6-yl)pyridin-2-yl)ethyl)-3-(1,1,1-trifluoro-4-oxopentan-2-yl)urea]: 2.7 nM and 101.1%.
The matching figures for `CCN(C(=O)N[C@@H](CCC#N)C(F)(F)F)[C@@H](c1cc(-c2cn3ccnc3c(OC)n2)c(OC)cn1)C(F)(F)F` [Example 2-35, 3-((S)-4-cyano-1,1,1-trifluorobutan-2-yl)-1-ethyl-1-((S)-2,2,2-trifluoro-1-(5-methoxy-4-(8-methoxyimidazo[1,2-a]pyrazin-6-yl)pyridin-2-yl)ethyl)urea]: 0.9 nM and 102.3%.
In the case of `CCN(C(=O)N[C@@H](CCS(C)(=O)=O)C(F)(F)F)[C@@H](c1cc(-c2cn3ccnc3c(OC)n2)c(OC)cn1)C(F)(F)F` [Example 2-36, 1-ethyl-1-((S)-2,2,2-trifluoro-1-(5-methoxy-4-(8-methoxyimidazo[1,2-a]pyrazin-6-yl)pyridin-2-yl)ethyl)-3-((S)-1,1,1-trifluoro-4-(methylsulfonyl)butan-2-yl)urea], the EC50 came to 0.7 nM and the “% of maximum agonist effect (relative to Orexin A)” value was found to be 100.5%.
As for `CCCC(C#N)NC(=O)N(CC)[C@H](C)c1cccc(-c2cn3ccnc3c(OC)n2)c1` (stereo partly drawn) [Example 2-37, 3-(1-cyanobutyl)-1-ethyl-1-((R)-1-(3-(8-methoxyimidazo[1,2-a]pyrazin-6-yl)phenyl)ethyl)urea], the EC50 came to 20 nM and the “% of maximum agonist effect (relative to Orexin A)” value is reported as 100.8%.
The matching figures for `CCN(C(=O)NC1CC(C(F)(F)F)C1)[C@@H](c1cc(-c2cn3ccnc3c(OC)n2)c(OC)cn1)C(F)(F)F` (stereo partly drawn) [Example 2-38, (S)-1-ethyl-1-(2,2,2-trifluoro-1-(5-methoxy-4-(8-methoxyimidazo[1,2-a]pyrazin-6-yl)pyridin-2-yl)ethyl)-3-(3-(trifluoromethyl)cyclobutyl)urea]: 4.2 nM and 99.7%.

In general, EC50 refers to the concentration that produces a half-maximal response.
